Laboratory results as given in patent US20240182460A1, “ALLOSTERIC CHROMENONE INHIBITORS OF PHOSPHOINOSITIDE 3-KINASE (PI3K) FOR THE TREATMENT OF DISEASE” (PETRA PHARMA CORPORATION, priority 2022, published 2024).

Experiments:
PI3Kα H1047R = molecular target: T1, PI3Kα H1047R (Homo sapiens, UniProt P42336, H1047R); test: PI3Kα H1047R mutant in vitro cell based assay, MDA-MB-453 cells (AlphaLisa SureFire); conditions: MDA-MB-453 cell line, 0% FBS, 3 hours treatment
T1 construct: The MDA-MB-453 (ATCC-HTB-131) cell line (PI3Kα H1047R); host or cells: MDA-MB-453
T1 sequence (P42336 whole entry H1047R): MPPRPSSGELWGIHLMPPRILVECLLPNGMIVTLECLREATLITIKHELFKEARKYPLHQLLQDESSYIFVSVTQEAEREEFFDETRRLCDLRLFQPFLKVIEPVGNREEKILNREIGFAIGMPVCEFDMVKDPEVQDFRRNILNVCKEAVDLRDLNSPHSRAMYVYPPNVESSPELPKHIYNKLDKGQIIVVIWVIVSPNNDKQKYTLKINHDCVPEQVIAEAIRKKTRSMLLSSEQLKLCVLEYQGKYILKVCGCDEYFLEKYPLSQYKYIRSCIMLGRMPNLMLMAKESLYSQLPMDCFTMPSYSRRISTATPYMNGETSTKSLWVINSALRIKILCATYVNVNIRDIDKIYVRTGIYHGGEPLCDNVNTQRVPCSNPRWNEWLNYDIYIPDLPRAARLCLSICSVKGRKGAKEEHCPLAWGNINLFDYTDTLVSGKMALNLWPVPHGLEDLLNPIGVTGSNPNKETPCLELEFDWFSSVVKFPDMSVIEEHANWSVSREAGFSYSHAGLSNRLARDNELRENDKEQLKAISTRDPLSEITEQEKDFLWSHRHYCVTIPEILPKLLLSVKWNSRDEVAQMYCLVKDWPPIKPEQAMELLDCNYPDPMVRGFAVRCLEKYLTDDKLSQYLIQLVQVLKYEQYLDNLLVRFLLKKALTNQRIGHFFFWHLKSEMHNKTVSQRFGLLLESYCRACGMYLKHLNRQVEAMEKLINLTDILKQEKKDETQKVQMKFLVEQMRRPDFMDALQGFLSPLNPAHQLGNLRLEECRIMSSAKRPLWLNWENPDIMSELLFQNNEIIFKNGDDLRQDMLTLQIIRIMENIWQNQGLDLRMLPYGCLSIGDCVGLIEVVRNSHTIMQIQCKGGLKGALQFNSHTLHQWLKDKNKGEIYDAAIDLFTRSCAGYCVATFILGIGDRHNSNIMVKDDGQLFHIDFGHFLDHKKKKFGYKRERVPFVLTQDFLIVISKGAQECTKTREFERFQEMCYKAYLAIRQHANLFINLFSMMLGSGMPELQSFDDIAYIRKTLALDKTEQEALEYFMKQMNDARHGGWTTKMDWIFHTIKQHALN
T1 sequence (P27986 whole entry partner): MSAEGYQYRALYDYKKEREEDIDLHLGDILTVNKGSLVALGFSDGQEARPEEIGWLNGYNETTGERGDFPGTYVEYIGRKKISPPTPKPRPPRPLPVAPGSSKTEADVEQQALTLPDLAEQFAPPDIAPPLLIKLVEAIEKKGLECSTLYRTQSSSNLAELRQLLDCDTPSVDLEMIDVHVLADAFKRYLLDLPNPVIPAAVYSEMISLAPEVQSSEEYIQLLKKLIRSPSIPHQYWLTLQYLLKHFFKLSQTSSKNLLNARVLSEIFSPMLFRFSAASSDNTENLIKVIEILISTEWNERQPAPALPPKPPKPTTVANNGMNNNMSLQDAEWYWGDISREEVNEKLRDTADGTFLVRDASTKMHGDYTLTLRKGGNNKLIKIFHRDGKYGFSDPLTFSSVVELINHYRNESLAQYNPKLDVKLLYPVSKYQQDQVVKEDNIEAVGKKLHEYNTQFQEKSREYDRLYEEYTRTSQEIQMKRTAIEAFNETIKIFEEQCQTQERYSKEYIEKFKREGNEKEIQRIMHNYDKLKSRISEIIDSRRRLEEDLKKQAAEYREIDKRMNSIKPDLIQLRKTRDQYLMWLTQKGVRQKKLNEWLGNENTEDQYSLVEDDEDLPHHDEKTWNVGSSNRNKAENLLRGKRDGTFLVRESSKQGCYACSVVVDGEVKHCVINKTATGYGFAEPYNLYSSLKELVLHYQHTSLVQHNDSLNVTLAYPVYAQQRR
In short: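 MDA-MB-453 cells (endogenous PI3Kα H1047R) were treated for 3 h in serum-free MEM containing 1 μg/mL insulin, with 10-point 1:3 dilutions in 0.3% DMSO. Lysates were read by AlphaLisa SureFire. IC50 came from a 4-parameter logistic fit of duplicate % inhibition, normalized to DMSO (max) and 1 μM GDC-0032 (min).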

PI3Kα E545K [1] = molecular target: T2, PI3Kα E545K (Homo sapiens, UniProt P42336, E545K); test: PI3Kα E545K mutant in vitro cell based assay, MDA-MB-361 cells; design: MDA-MB-361 (ATCC-HTB-27) cell line (PI3Kα E545K); host or cells: MDA-MB-361; conditions: MDA-MB-361 cell line, 0% FBS, no insulin, 3 hours treatment
T2 sequence (P42336 whole entry E545K): as the sequence (P42336 whole entry H1047R) above, with E545K, R1047H counted along it
T2 sequence (P27986 whole entry partner): as the sequence (P27986 whole entry partner) above
In short: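 Compound exposure lasted 3 hours, in duplicate 10-point 1:3 dilutions at 0.3% DMSO final, on overnight-attached MDA-MB-361 cells carrying PI3Kα E545K in insulin-free, 0% FBS MEM. Lysates read by SureFire AlphaLISA. Relative IC50 from 4-parameter logistic fit versus DMSO and 1 μM GDC-0032 controls.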

PI3Kα E545K [2] = molecular target: T2, PI3Kα E545K; test: PI3Kα E545K mutant in vitro cell based assay, MCF-7 cells; conditions: MCF-7 cell line, 0% FBS, 3 hours treatment
In short: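 MCF-7 cells (PI3Kα E545K) in serum-free MEM with 1 μg/mL insulin were treated 3 h with 10-point 1:3 dilutions in 0.3% DMSO. Lysates were read by SureFire AlphaLisa. IC50 was fitted by 4-parameter logistic to % inhibition relative to DMSO (max) and 1 μM GDC-0032 (min), duplicates averaged.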

| IC50 (PI3Kα H1047R) | IC50 (PI3Kα E545K [1]) | Structure (SMILES) | IC50 (PI3Kα E545K [2]) |
| --- | --- | --- | --- |
| < 100 nM | < 500 nM | Cc1cc([C@@H](C)Oc2ccc(Cl)nc2C(N)=O)c2oc(-c3cc(F)c4nn(C)cc4c3)c(C)c(=O)c2c1 [Example 17B, 6-Chloro-3-[(1R)-1-[2-(7-fluoro-2-methyl-indazol-5-yl)-3,6-dimethyl-4-oxo-chromen-8-yl]ethoxy]pyridine-2-carboxamide] |  |
| < 100 nM | < 500 nM | Cc1cc([C@@H](C)Oc2ccc(Cl)nc2-c2noc(=O)[nH]2)c2oc(-c3ccc4c(c3)OC(F)(F)O4)c(C)c(=O)c2c1 [Example 46A, 3-[6-Chloro-3-[(1R)-1-[2-(2,2-difluoro-1,3-benzodioxol-5-yl)-3,6-dimethyl-4-oxo-chromen-8-yl]ethoxy]-2-pyridyl]-4H-1,2,4-oxadiazol-5-one] | < 500 nM |
| < 100 nM | < 500 nM | CC(=O)Nc1ccc(-c2oc3c([C@@H](C)Oc4ccc(Cl)nc4C(N)=O)cc(C)cc3c(=O)c2C)cc1 [Example 58C, 3-[(1R)-1-[2-(4-Acetamidophenyl)-3,6-dimethyl-4-oxo-chromen-8-yl]ethoxy]-6-chloro-pyridine-2-carboxamide] |  |
| < 100 nM | < 500 nM | Cc1cc([C@@H](C)Oc2ccc(Br)nc2C(N)=O)c2oc(-c3ccc4nn(C)cc4c3)c(C)c(=O)c2c1 [Example 81C, 6-Bromo-3-[(1R)-1-[3,6-dimethyl-2-(2-methylindazol-5-yl)-4-oxo-chromen-8-yl]ethoxy]pyridine-2-carboxamide] |  |

| Structure (SMILES) | IC50 (PI3Kα H1047R) | IC50 (PI3Kα E545K [1]) | IC50 (PI3Kα E545K [2]) |
| --- | --- | --- | --- |
| Cc1cc([C@@H](C)Oc2ccc(Cl)nc2NS(C)(=O)=O)c2oc(-c3cnn(C)c3)c(C)c(=O)c2c1 [Example 149A, N-[6-Chloro-3-[(1R)-1-[3,6-dimethyl-2-(1-methylpyrazol-4-yl)-4-oxo-chromen-8-yl]ethoxy]-2-pyridyl]methanesulfonamide] |  | < 500 nM | < 500 nM |
